In this test the test system is anesthetized cats. Description: Determination of the effect on blood pressure and the positive inotropic effect in anesthetized cats. In kind it is in vivo. As to conditions: 2 mg/kg i.v.; for Increase in dp/dtmax in %: left ventricle contractility parameter; for Reduction in Blood Pressure in mm Hg: arterial pressure, aorta abdominalis. How it is done: Determination of the effect on blood pressure and the positive inotropic effect in anesthetized cats
The tests were carried out on cats which had been anesthetized with sodium pentobarbital (40 mg/kg i.p.). The animals breathed spontaneously. The arterial blood pressure was measured in the aorta abdominalis, using a Statham pressure transducer (P 23 Dc). To determine the positive inotropic effect, the pressure in the left ventricle was measured with a catheter-tip manometer (Millar PC-350 A). From this, the contractility parameter dp/dtmax was obtained, using an analogue differentiator. The test compounds were injected into a vena femoralis. The solvent used was physiological saline solution of Polydiol 200. Each compound was tested on at least 3 cats, dosage 2 mg/kg i.v.

Structures can show the parent of a compound that is named as a salt.

Turning to `COc1cc(OS(C)(=O)=O)ccc1-c1nc2nc(OS(C)(=O)=O)ccc2[nH]1` (single isomer, unassigned) [B, 2-(2-methoxy-4-methanesulfonyloxy-phenyl)-5-methanesulfonyloxy-imidazo[4,5-b]pyridine], the “Duration of effective action (Half life)” value was 37 min and the “Increase in dp/dtmax in %” value was “+53%”. For the setting “value after the slash”, the “Reduction in Blood Pressure in mm Hg” value is -42 mm Hg. In addition, where the note is “value before the slash”, the “Reduction in Blood Pressure in mm Hg” value is listed as -50 mm Hg.
For the molecule `COc1cc(OS(C)(=O)=O)ccc1-c1nc2[nH]c(=O)ncc2[nH]1` [A, 8-(2-methoxy-4-methanesulfonyloxy-phenyl)-3(1)H-purin-2-one], the “Duration of effective action (Half life)” value turned out to be 42 min and the “Increase in dp/dtmax in %” value is “+48%”. Besides, for the setting “value after the slash”, the “Reduction in Blood Pressure in mm Hg” value is -6 mm Hg. For the same molecule, the “Reduction in Blood Pressure in mm Hg” value (value before the slash) was -8 mm Hg.
For `COc1cc(OS(C)(=O)=O)ccc1C1=NC2=CCC(=O)NC2=N1` [C, 2-(2-methoxy-4-methanesulfonyloxy-phenyl)-4H-imidazo[4,5-b]pyridin-5-one], the “Duration of effective action (Half life)” value was found to be 31 min and the “Increase in dp/dtmax in %” value was “+158%”. In addition, the “Reduction in Blood Pressure in mm Hg” value (value after the slash) is on record as -54 mm Hg. Also, under “value before the slash”, the “Reduction in Blood Pressure in mm Hg” value is -54 mm Hg.
For `COc1cc(OS(C)(=O)=O)ccc1-c1nc2c(=O)[nH]ccc2[nH]1` [D, 2-(2-methoxy-4-methanesulfonyloxy-phenyl)-5H-imidazo[4,5-c]pyridin-4-one hydrochloride], the “Duration of effective action (Half life)” value was determined as 31 min and the “Increase in dp/dtmax in %” value was “+117%”. For the setting “value after the slash”, the “Reduction in Blood Pressure in mm Hg” value is -42 mm Hg. For the same molecule, the “Reduction in Blood Pressure in mm Hg” value (value before the slash) is given as -42 mm Hg.
For `COc1cc(OS(C)(=O)=O)ccc1-c1nc2c(OS(C)(=O)=O)nccc2[nH]1` [E, 2-(2-methoxy-4-methanesulfonyloxy-phenyl)-4-methanesulfonyloxy-imidazo[4,5-c]pyridine], the “Duration of effective action (Half life)” value is 29 min and the “Increase in dp/dtmax in %” value was “+87%”. For the setting “value after the slash”, the “Reduction in Blood Pressure in mm Hg” value was -27 mm Hg. The “Reduction in Blood Pressure in mm Hg” value (value before the slash) is given as -35 mm Hg.
On the same counts, the results for `C#CCOc1ccc(-c2nc3c(=O)[nH]ccc3[nH]2)c(OC)c1` [F, 2-(2-methoxy-4-propargyloxy-phenyl)=5H-imidazo[4,5-c]pyridin-4-one] are 8 min, “+138%”, -47 mm Hg and -59 mm Hg.
As to `COc1cc(OS(C)(=O)=O)ccc1C1=NC2=NCC(=O)NC2=N1` [G, 2-(2-methoxy-4-methanesulfonyloxy-phenyl)-4H-imidazo[4,5-b]pyrazin-5-one], the “Duration of effective action (Half life)” value was 5 min and the “Increase in dp/dtmax in %” value is listed as “+100%”. Besides, the “Reduction in Blood Pressure in mm Hg” value (value after the slash) is recorded as -27 mm Hg. Besides, the “Reduction in Blood Pressure in mm Hg” value (value before the slash) is recorded as -26 mm Hg.

For the origin of these results see patent US4766130A, “2-phenyl-imidazopyridin-ones and also useful as cardiotonics and anti-hypertensives” (Celamerck GmbH & Co. KG, priority 1983, dated 1988).
